Assays:
DIPGX7 [1] = H3.3 K27M diffuse intrinsic pontine glioma line; experiment: EC50 (inflection of fitted growth-inhibition curve) (log10 M)
Method in brief: (§1)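 Patient-derived pHGG/DIPG cell lines and astrocyte controls were plated in 384-well plates coated with 1% Geltrex and dosed by pin tool with a 10-point threefold dilution series (mean top concentration 35 μM), in triplicate. Cells were exposed for 7 days (3 days for iAstro) at 37 °C and 5% CO2. CellTiter-Glo luminescence was log2-transformed, normalised per plate to % activity between negative (solvent) and positive control wells, and pooled. EC50 and maximal response (yFin) were taken from whichever three- or four-parameter log-logistic fit had the lowest AICc.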

iAstro [2] = astrocyte control; experiment: as above
Method in brief: as §1

DIPGX37 [3] = H3.3 K27M diffuse intrinsic pontine glioma line; experiment: as above
Method in brief: as §1

HGGX42 [4] = H3.3 G34R paediatric high-grade glioma line; experiment: as above
Method in brief: as §1

DIPGX29 [5] = H3.3 K27M diffuse intrinsic pontine glioma line; experiment: as above
Method in brief: as §1

SUDIPGXXI [6] = diffuse intrinsic pontine glioma line; experiment: as above
Method in brief: as §1

DIPGX7 [7] = experiment: maximal growth inhibition (yFin) relative to DMSO / staurosporine; higher = more efficacious
Method in brief: as §1

iAstro [8] = experiment: as above
Method in brief: as §1

DIPGX37 [9] = experiment: as above
Method in brief: as §1

HGGX42 [10] = experiment: as above
Method in brief: as §1

DIPGX29 [11] = experiment: as above
Method in brief: as §1

SUDIPGXXI [12] = experiment: as above
Method in brief: as §1

HGGX39 [13] = paediatric high-grade glioma line; experiment: area under dose-response curve of % growth inhibition (log2 RLU vs DMSO / staurosporine), 1e-11 to 1e-4 M (% x log10 M); higher = more growth inhibition
Method in brief: (§2)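 Patient-derived pHGG/DIPG cell lines and astrocyte controls were grown on 1% Geltrex-coated 384-well plates and exposed to a 10-point threefold dilution series (mean top concentration 35 μM), in triplicate. Exposure was 7 days (iAstro 3 days) at 37 °C, 5% CO2. CellTiter-Glo luminescence was log2-transformed and normalised per plate to % activity between solvent and positive controls. Area under the curve was taken by trapezoid rule from the fitted log-logistic curve, or from a smoothing spline when the sigmoid fit failed.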

HABS [14] = astrocyte control; experiment: as above
Method in brief: as §2

SUDIPGXIX [15] = diffuse intrinsic pontine glioma line; experiment: as above
Method in brief: as §2

DIPGX7 [16] = experiment: as above
Method in brief: as §2

HGGX6 [17] = H3.3 G34R paediatric high-grade glioma line; experiment: as above
Method in brief: as §2

SUDIPGXVII [18] = diffuse intrinsic pontine glioma line; experiment: as above
Method in brief: as §2

iAstro [19] = experiment: as above
Method in brief: as §2

DIPGX9 [20] = diffuse intrinsic pontine glioma line; experiment: as above
Method in brief: as §2

DIPGX37 [21] = experiment: as above
Method in brief: as §2

SUDIPGIV [22] = diffuse intrinsic pontine glioma line; experiment: as above
Method in brief: as §2

HGGX2 [23] = paediatric high-grade glioma line; experiment: as above
Method in brief: as §2

SUDIPGVI = diffuse intrinsic pontine glioma line; experiment: as above
Method in brief: as §2

HGGX42 [24] = experiment: as above
Method in brief: as §2

DIPGX29 [25] = experiment: as above
Method in brief: as §2

SUDIPGXXI [26] = experiment: as above
Method in brief: as §2

SUDIPGXIII = diffuse intrinsic pontine glioma line; experiment: as above
Method in brief: as §2

HGGX39 [27] = experiment: EC50 (inflection of fitted growth-inhibition curve) (log10 M)
Method in brief: as §1

HABS [28] = experiment: as above
Method in brief: as §1

SUDIPGXIX [29] = experiment: as above
Method in brief: as §1

SUDIPGXVII [30] = experiment: as above
Method in brief: as §1

DIPGX9 [31] = experiment: as above
Method in brief: as §1

SUDIPGIV [32] = experiment: as above
Method in brief: as §1

HGGX2 [33] = experiment: as above
Method in brief: as §1

HGGX39 [34] = experiment: maximal growth inhibition (yFin) relative to DMSO / staurosporine; higher = more efficacious
Method in brief: as §1

HABS [35] = experiment: as above
Method in brief: as §1

SUDIPGXIX [36] = experiment: as above
Method in brief: as §1

SUDIPGXVII [37] = experiment: as above
Method in brief: as §1

DIPGX9 [38] = experiment: as above
Method in brief: as §1

SUDIPGIV [39] = experiment: as above
Method in brief: as §1

HGGX2 [40] = experiment: as above
Method in brief: as §1

HGGX6 [41] = experiment: EC50 (inflection of fitted growth-inhibition curve) (log10 M)
Method in brief: as §1

HGGX6 [42] = experiment: maximal growth inhibition (yFin) relative to DMSO / staurosporine; higher = more efficacious
Method in brief: as §1

SMILES	EC50 (log10 M) (iAstro [2])	EC50 (log10 M) (HGGX42 [4])	EC50 (log10 M) (SUDIPGXXI [6])	maximal growth inhibition (iAstro [8]) [%]	maximal growth inhibition (SUDIPGXXI [12]) [%]	area under dose-response curve (HGGX39 [13])	area under dose-response curve (HABS [14])	area under dose-response curve (SUDIPGXIX [15])	area under dose-response curve (DIPGX7 [16])	area under dose-response curve (HGGX6 [17])	area under dose-response curve (SUDIPGXVII [18])	area under dose-response curve (iAstro [19])	area under dose-response curve (DIPGX9 [20])	area under dose-response curve (DIPGX37 [21])	area under dose-response curve (SUDIPGIV [22])	area under dose-response curve (SUDIPGVI)	area under dose-response curve (HGGX42 [24])	area under dose-response curve (DIPGX29 [25])	area under dose-response curve (SUDIPGXXI [26])	area under dose-response curve (SUDIPGXIII)	other results
Fc1ccc(N2CCN(CCC3OCCc4ccccc43)CC2)cc1 (stereo not drawn)	-5.03	-4.98	-5.02	23.3	57.5	18.1	1.16	0	37.3	14.9	8.36	24	13.4	33.4	15.7	12.8	37.8	27.2	87.1	13.4	EC50 (log10 M) (DIPGX7 [1]): -4.91; EC50 (log10 M) (DIPGX37 [3]): -4.97; EC50 (log10 M) (DIPGX29 [5]): -5.02; maximal growth inhibition (DIPGX7 [7]): 40.7%; maximal growth inhibition (DIPGX37 [9]): 34.9%; maximal growth inhibition (HGGX42 [10]): 38.6%; maximal growth inhibition (DIPGX29 [11]): 26.6%; area under dose-response curve (HGGX2 [23]): 15.4
O=C1NC(=O)C(c2cnc3ccccn23)=C1c1cn2c3c(cc(F)cc13)CN(C(=O)N1CCCCC1)CC2	-5.34	-5.13	-6.42	45.8	112	70.9	199	37	6.78	30.8	16.9	66.3	64	24.1	300	6.26	72.1	42	277	6.37	EC50 (log10 M) (HGGX39 [27]): -6.42; EC50 (log10 M) (HABS [28]): -7.93; EC50 (log10 M) (SUDIPGXIX [29]): -5.7; EC50 (log10 M) (SUDIPGXVII [30]): -4.97; EC50 (log10 M) (DIPGX9 [31]): -4.66; EC50 (log10 M) (DIPGX37 [3]): -4.48; EC50 (log10 M) (SUDIPGIV [32]): -8.3; EC50 (log10 M) (HGGX2 [33]): -4.66; EC50 (log10 M) (DIPGX29 [5]): -4.49; maximal growth inhibition (HGGX39 [34]): 35.2%; maximal growth inhibition (HABS [35]): 50.7%; maximal growth inhibition (SUDIPGXIX [36]): 24.1%; maximal growth inhibition (SUDIPGXVII [37]): 22.3%; maximal growth inhibition (DIPGX9 [38]): 97.2%; maximal growth inhibition (DIPGX37 [9]): 52.1%; maximal growth inhibition (SUDIPGIV [39]): 69.8%; maximal growth inhibition (HGGX2 [40]): 40.7%; maximal growth inhibition (HGGX42 [10]): 60.7%; maximal growth inhibition (DIPGX29 [11]): 49.3%; area under dose-response curve (HGGX2 [23]): 27
Cc1nc(Nc2ncc(C(=O)Nc3c(C)cccc3Cl)s2)cc(N2CCN(CCO)CC2)n1 [DASATINIB]	-4.82	–	-4.85	34.9	110	77.5	143	51.9	26.2	61.1	22	27.6	80	39.6	60.9	12	83.4	54.9	109	16.1	EC50 (log10 M) (HGGX39 [27]): -5.3; EC50 (log10 M) (SUDIPGXIX [29]): -4.77; EC50 (log10 M) (DIPGX7 [1]): -4.59; EC50 (log10 M) (DIPGX9 [31]): -4.85; maximal growth inhibition (HGGX39 [34]): 41.3%; maximal growth inhibition (SUDIPGXIX [36]): 50.4%; maximal growth inhibition (DIPGX7 [7]): 28.2%; maximal growth inhibition (DIPGX9 [38]): 64.4%
C#Cc1cccc(Nc2ncnc3cc(OCCOC)c(OCCOC)cc23)c1 [ERLOTINIB]	-5.17	-5.09	-5.65	27.5	103	34.2	86.4	78.6	44.7	22.9	44.5	29.7	68.4	51.3	53	33.8	50	28.1	178	9.16	EC50 (log10 M) (HGGX39 [27]): -4.77; EC50 (log10 M) (HABS [28]): -4.84; EC50 (log10 M) (SUDIPGXIX [29]): -5.24; EC50 (log10 M) (HGGX6 [41]): -4.65; EC50 (log10 M) (SUDIPGXVII [30]): -5.32; EC50 (log10 M) (DIPGX9 [31]): -5.14; EC50 (log10 M) (HGGX2 [33]): -5.13; EC50 (log10 M) (DIPGX29 [5]): -4.82; maximal growth inhibition (HGGX39 [34]): 40.4%; maximal growth inhibition (HABS [35]): 80.2%; maximal growth inhibition (SUDIPGXIX [36]): 62.6%; maximal growth inhibition (HGGX6 [42]): 30.5%; maximal growth inhibition (SUDIPGXVII [37]): 25.8%; maximal growth inhibition (DIPGX9 [38]): 53.6%; maximal growth inhibition (HGGX2 [40]): 32.7%; maximal growth inhibition (HGGX42 [10]): 31.5%; maximal growth inhibition (DIPGX29 [11]): 25.7%; area under dose-response curve (HGGX2 [23]): 37.1
